Measured values: US9809604B2, “DGAT1 inhibitor and preparation method and use thereof” (Qingdao Huanghai Pharmaceutical Co., Ltd., priority 2013, dated 2017)
≈ marks a conversion by molar mass, not a printed value. Read-outs that look alike come from different tables or passages of the source.

What was measured:
mouse DGAT1 = target: T1, mouse DGAT1 (Mus musculus, UniProt Q9Z2A7); test: Mouse DGAT1 IC50 enzymatic assay; assay type: biochemical
T1 construct: made in house
T1 sequence (Q9Z2A7 1-498): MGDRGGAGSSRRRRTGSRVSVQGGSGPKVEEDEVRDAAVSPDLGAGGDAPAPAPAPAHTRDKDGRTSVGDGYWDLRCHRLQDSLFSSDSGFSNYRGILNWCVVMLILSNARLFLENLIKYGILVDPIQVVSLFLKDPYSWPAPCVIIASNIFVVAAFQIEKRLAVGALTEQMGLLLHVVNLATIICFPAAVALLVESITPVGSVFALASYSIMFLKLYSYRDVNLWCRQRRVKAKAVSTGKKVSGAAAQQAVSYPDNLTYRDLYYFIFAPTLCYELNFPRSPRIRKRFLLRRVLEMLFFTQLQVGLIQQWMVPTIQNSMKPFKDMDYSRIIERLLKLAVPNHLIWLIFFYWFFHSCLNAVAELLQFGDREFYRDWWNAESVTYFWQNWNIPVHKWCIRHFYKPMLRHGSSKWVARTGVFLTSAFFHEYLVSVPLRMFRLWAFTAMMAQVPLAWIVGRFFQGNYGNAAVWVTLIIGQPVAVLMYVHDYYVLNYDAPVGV
Method: Expressing human DGAT1 enzyme, used diacylglycerol and 14C-labeled acyl-CoA as the substrate, choose PE Company Flashplate testing board to build DGAT1 enzyme reaction system. 14C-labeled acyl-CoA binds to diacylglycerol by covalent bonding after enzymology reaction, and generates the product of 14C-labeled triglyceride. 14C-labeled acyl-CoA substrate is dissolved in reaction solution and 14C-labeled triglyceride product combine with phospholipids of Flashplate plate bottom layer, thus effectively separate labeled substrates and products. The radioactive of 14C-labeled triglyceride which is combined with phospholipid layer is counted, and the potencies of DGAT-1 inhibition for the compounds are determined by calculating the IC50 values.
Mouse DGAT1 activity was determined as follows:
Mouse DGAT1 IC50 determination method: in addition to expression of mouse DGAT1, experiment method with human DGAT1 enzymatic assay is the same.

DGAT1 [1] = target: T2, DGAT1 (Homo sapiens, UniProt O75907); test: Human DGAT1 IC50 enzyme assay (Flashplate, 14C-labeled acyl-CoA); assay type: biochemical; design: made in house
T2 sequence (O75907 1-488): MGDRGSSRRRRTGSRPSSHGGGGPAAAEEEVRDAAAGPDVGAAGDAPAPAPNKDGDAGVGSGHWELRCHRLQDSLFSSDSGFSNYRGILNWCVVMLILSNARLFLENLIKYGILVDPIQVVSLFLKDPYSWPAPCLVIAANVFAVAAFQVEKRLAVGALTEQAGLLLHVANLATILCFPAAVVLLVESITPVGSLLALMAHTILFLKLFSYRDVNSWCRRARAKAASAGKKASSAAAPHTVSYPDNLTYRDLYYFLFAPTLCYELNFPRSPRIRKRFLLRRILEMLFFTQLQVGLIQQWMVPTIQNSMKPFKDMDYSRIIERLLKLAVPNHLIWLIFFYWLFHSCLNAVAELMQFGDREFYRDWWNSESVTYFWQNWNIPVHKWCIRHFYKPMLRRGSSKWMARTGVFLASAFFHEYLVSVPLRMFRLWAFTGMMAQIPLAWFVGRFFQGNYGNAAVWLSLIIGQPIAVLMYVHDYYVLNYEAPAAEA
Outline: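 Radiometric Flashplate format: expressed human DGAT1 transfers 14C-acyl from acyl-CoA onto diacylglycerol, and labeled triglyceride binding the plate's phospholipid layer is counted. Potency reported as IC50; Ki calculated as IC50/(1+[S]/Km).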

[2] = Diet induced obesity in mice; assay type: in vivo; conditions: DIO mice
Method: (2) Diet Induced Obesity in Mice
Male C57bl/6J mice (6 weeks) were individually housed in hanging wire cages at 20-25° C. with a 12:12 hour light:dark cycle (Humidity: 40˜70%). After one week acclimation, the mice are fed with high fat pelleted diet (D12492i, Research Diets, Inc) and fresh water, ad libitum. Typically; C57BL/6J male mice become obese, and reach 40-50 g after 12-14 weeks of high fat diet treatment.
Animals accept oral gavages acclimation for two weeks. Then next, they are dosed with test articles or vehicle (bid) accordingly for 7 day. Food intake and body weight are recorded every day. Data are graphed by Graph Pad Prism 5.0 and evaluated using SPSS, p<0.05 is considered to be statistically significant.

DGAT1 [3] = target: T2, DGAT1; test: In vitro assay in HEK-293 cells (13C-labeled oleic acid incorporation into TG, LC/MS/MS); assay type: cell-based; design: endogenous DGAT1-expressing catalytic ^13C-labeled oleic acid incorporate to TG; endogenous in cells; host or cells: HEK293; conditions: for EC50: HEK293 cells
From the text: In Vitro Assay in HEK-293 Cells:
We treated HEK293 cells with stable isotope ^13C-labeled oleic acid and endogenous DGAT1-expressing catalytic ^13C-labeled oleic acid incorporate to TG. The extraction and separation of cell suspension is to obtain the triglycerides composition. A LC/MS/MS method is used to measure the concentration of ^13C in TG to determine catalytic reaction rate of DGAT1, then determine the compound of DGAT1 inhibition (IC50).

Solubility at pH 7.4 = assay type: physicochemical; conditions: pH 7.4, aqueous buffer; read-out: Sol pH 7.4
[4] = system: plasma triacylglycerol levels; test: Lipid tolerance test in mice; assay type: in vivo
Method: (1) Lipid Tolerance Test in Mice:
CDI mice (30 g or so) were individually housed in hanging wire cages at 20-25° C. with a 12:12 hour light:dark cycle (Humidity: 40˜70%). The mice had ad libitum access to water. On the day of experimentation, food jars were removed from each cage 16 hours prior to rate received either vehicle or test article based on a randomization plan generated by randomization. After sixty minutes, oral administration (gavage) of corn oil at a dose volume of 6 mL/kg (time=0). Blood samples were obtained from each mouse via tail snip procedure at −0.5, 0.5, 1, 2 and 4 hours. 20 ul of blood sampling will be rapidly collected, and then is centrifuged at 7000 rpm for 10 min to determine plasma triacylglycerol levels. Triglyceride was quantitated using TG ELISA kit. All data will be analyzed using SPSS. p<0.05 is considered to be statistically significant.

[5] = Plasma pharmacokinetics in male SD rats; assay type: in vivo; conditions: rat; for AUC(0-t) / half-life / Vd / bioavailability: male, SD, plasma; for AUC(0-t): read-out: AUC0-1 (ng · n/mL); for half-life: read-out: T1/2 (b) (converted); for Vd: intravenous, 2 mg/kg, read-out: Vdss; for bioavailability: oral, 10 mg/kg
Method: (3) Pharmacokinetics of Test Compounds
The purpose of this study is to determine the plasma pharmacokinetics of male SD rats. Two animals will receive a solution of test article in vehicle by single intravenous bolus via tail vein; the dosage is 2 mg/kg. Blood samples are taken at specified time points (0, 0.0833, 0.25, 0.5, 1, 2, 4, 7, 24 h) after dosing. Another two animals will receive a solution or suspension of TA in vehicle by oral gavage at 10 mg/kg. The schedule for sample collection is 0.5, 1, 2, 3, 4, 6, 24 h after dosing. A LC/MS/MS method is used to measure the concentration of test compound in plasma. Non-compartmental pharmacokinetic analysis is performed on the plasma concentration-time data. PK parameters of calculations are done using Phoenix WinNonlin. 6.2.1 software program.

[6] = average of first and second, read-out: hDGAT1 IC50(nM) Average
[7] = first determination, read-out: hDGAT1 IC50(nM) First
[8] = second determination, read-out: hDGAT1 IC50(nM) Second
[9] = iv, 1.78-2.06 mg/kg as printed in each cell

Row | IC50 (mouse DGAT1) | IC50 (DGAT1 [1]; [6]) | IC50 (DGAT1 [1]; [7]) | IC50 (DGAT1 [1]; [8]) | EC50 (DGAT1 [3]) | solubility (Solubility at pH 7.4) | AUC(0-t) [5, 9] | half-life ([5]; po, 8.94-9.33 mg/kg) | Vd [5] | bioavailability [5] | CI [5] | cell activity (DGAT1 [3]; compared with Pradigastat) | half-life [5, 9] | SMILES | 7 days Cumulative Body Weight Change (%) ([2]; 10mpk BID) | 7 days Cumulative Food Intake Change (%) ([2]; 10mpk BID) | Inhibtion % @ 2 h 1 MPK PO [4] | body weight ([2]; 30 mpk BID) | food intake ([2]; 30 mpk BID) | 7 days Cumulative Body Weight Change (%) ([2]; 30mpk BID) | 7 days Cumulative Food Intake Change (%) ([2]; 30mpk BID)
1 | 12.5 nM | 31.3 nM | 37.7 nM | 30 nM | 22.1 nM | 187 µM (≈ 83.5 µg/mL) | 2120 ng·h/mL | 3.2 h | 1.49 L/kg | ~100% | 14.4 mL/min/kg |  |  | Cc1cc(N2CCOc3ncnc(N)c3C2=O)cc(C)c1-c1cn(CC(F)(F)F)nc1C [Compound 41, 4-amino-6-(3,5-dimethyl-4-(3-methyl-1-(2,2,2-trifluoroethyl)-1H-pyrazol-4-yl)phenyl)-7,8-dihydropyrimido[5,4-f][1,4]oxazepin-5(6H)-one] | −3.32% | −16.35% | 83% inh |  |  |  | 
2 | 33.6 nM | 31.7 nM | 27 nM | 36.4 nM | 3.64 nM | 70 µM (≈ 35.7 µg/mL) | 17700 ng·h/mL | 2.93 h | 0.54 L/kg | 56.8% | 1.96 mL/min/kg | better cell activity | 3.81 h | Cc1cc(N2CCOc3ncnc(N)c3C2=O)cc(C)c1-c1ccc2ccn(CC(F)(F)F)c(=O)c2c1 [Compound 105, 4-amino-6-(3,5-dimethyl-4-(1-oxo-2-(2,2,2-trifluoroethyl)-1,2-dihydroisoquinolin-7-yl)phenyl)-7,8-dihydropyrimido[5,4-f][1,4]oxazepin-5-(6H)-one] | −1.06% | −8.56% | 118% inh |  |  |  | 
3 | 30.2 nM | 49 nM | 68.2 nM | 29.7 nM | 3.65 nM | 22 µM (≈ 10 µg/mL) | 42900 ng·h/mL | 2.33 h | 0.15 L/kg | 14.9% | 0.70 mL/min/kg |  | 2.19 h | O=C(O)C[C@H]1CC[C@H](c2ccc(-c3ccc(Nc4ccc(C(F)(F)F)nc4)cn3)cc2)CC1 [Pradigastat, reference compound] |  |  | 34% inh | increased slight | increased slight | 1.72% | 5.85%
